Measurements from US20130115220A1, “METHOD FOR PREVENTION OR TREATMENT OF METABOLIC SYNDROME” (DAINIPPON SUMITOMO PHARMA CO., LTD., priority 2010, published 2013).

Target: T1, FAS (Mus musculus, UniProt P19096)
T1 construct: endogenous in cells; host or cells: 3T3-L1 adipocytes (treated cells, then lysed)
Experiment: FAS enzyme activity of treated 3T3-L1 adipocytes
Type: cell-based
Details: 3T3-L1 cells, C75 25 μM, 6 days
Procedure: The influence of AIM on FAS activity of adipocyte or adipose tissue was examined. FAS activity was measured by the method of Kelley (Kelley et al., Biochem. J., 1986, 235:87-90) with slight modification. 3T3-L1 adipocytes, or lysates of adipose tissue of obese mice was mixed with acetyl-CoA and NADPH (0.2 M […] phosphate buffer [pH 7.0] containing 0.4 mM EDTA), and the mixture was placed in a spectrophotometer cuvette and maintained at 30° C. 20 μl of malonyl-CoA solution (0.2 mM) was added to start an enzyme reaction and decrease of OD was measured at a chart speed 2 cm/min. Based on the results, the enzyme activity of FAS was evaluated using the molar extinction coefficient of […] NADPH as 6220.
First, the FAS activity of 3T3-L1 cells treated for 6 days in the presence or absence of rAIM (5 μg/ml), and in the presence of C75 (25 μM) was measured. Moreover, the FAS activity of adipose tissues of AIM^+/+ mice and AIM^−/− mice and the FAS activity of adipose tissue of AIM^−/− mice administered with rAIM or BSA 3 hr before by intraadipose topical injection are shown in FIGS. 28 and 29, respectively.
All mice were fed with HFD for 20 weeks. The samples were dissolved (lysed) and the FAS activity was measured. The data was converted to that based on FAS protein, according to the results of WB performed using the same sample.

T1 sequence (P19096 whole entry): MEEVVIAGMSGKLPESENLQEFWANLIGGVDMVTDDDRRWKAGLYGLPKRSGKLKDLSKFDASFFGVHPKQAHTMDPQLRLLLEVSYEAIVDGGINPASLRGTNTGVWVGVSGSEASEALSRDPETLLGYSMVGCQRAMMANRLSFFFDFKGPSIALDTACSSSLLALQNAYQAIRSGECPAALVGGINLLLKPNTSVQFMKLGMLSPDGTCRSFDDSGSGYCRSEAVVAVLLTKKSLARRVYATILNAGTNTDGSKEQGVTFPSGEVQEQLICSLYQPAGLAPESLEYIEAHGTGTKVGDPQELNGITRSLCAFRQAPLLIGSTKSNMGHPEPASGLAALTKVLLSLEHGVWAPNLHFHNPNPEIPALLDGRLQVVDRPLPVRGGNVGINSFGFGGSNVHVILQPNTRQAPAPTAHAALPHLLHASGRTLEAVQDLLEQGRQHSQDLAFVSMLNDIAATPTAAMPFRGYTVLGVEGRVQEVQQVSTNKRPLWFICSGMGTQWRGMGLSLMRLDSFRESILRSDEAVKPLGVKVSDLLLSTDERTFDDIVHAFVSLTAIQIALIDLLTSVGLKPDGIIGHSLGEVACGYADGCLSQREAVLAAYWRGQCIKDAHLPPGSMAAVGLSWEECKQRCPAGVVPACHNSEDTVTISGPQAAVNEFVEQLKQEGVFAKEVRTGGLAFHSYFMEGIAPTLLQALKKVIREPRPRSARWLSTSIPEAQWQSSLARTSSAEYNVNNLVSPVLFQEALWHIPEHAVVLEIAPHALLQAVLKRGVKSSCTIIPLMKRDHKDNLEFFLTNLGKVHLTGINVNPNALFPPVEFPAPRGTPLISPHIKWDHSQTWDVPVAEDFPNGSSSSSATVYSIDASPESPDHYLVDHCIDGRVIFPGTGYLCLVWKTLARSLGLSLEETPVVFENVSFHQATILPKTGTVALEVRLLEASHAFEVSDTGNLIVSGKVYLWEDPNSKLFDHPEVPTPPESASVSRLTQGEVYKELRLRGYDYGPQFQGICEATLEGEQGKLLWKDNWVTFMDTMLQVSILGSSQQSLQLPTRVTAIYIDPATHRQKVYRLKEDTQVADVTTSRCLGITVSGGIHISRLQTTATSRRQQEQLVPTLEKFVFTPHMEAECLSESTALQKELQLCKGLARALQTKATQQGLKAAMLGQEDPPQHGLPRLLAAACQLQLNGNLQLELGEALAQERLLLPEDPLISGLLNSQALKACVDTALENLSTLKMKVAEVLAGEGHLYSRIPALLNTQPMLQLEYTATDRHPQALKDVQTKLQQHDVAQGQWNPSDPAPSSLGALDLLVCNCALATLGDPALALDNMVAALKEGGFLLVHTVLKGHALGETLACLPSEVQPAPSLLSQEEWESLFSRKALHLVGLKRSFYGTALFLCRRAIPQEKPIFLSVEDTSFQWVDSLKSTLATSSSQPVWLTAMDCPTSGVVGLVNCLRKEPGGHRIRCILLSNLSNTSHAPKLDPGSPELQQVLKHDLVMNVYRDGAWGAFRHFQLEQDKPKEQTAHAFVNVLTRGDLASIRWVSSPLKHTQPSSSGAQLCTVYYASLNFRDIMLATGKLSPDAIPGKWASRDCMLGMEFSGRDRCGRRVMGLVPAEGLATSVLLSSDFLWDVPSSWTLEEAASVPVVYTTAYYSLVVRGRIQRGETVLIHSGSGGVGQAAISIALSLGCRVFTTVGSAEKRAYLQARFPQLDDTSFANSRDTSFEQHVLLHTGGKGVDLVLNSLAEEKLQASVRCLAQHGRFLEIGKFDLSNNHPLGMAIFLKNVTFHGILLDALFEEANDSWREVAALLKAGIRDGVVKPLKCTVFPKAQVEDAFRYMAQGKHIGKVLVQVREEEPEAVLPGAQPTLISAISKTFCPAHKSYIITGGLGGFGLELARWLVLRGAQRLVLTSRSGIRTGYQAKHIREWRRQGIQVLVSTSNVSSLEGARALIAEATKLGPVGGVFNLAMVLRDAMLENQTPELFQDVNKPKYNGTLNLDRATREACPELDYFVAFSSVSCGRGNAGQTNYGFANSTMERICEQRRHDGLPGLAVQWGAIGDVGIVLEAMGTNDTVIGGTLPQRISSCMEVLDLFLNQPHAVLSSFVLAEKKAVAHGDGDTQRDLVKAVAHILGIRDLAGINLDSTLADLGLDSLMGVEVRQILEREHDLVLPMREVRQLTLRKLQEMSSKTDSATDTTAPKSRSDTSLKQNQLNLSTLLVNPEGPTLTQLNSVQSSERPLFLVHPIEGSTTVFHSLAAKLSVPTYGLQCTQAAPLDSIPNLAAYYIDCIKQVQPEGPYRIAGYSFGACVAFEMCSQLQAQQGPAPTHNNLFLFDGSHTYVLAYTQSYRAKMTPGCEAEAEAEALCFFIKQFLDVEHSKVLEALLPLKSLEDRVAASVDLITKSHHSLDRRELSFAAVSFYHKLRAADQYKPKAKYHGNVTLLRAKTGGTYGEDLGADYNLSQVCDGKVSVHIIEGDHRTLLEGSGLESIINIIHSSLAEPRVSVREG

FAS activity, level of suppression compared with rAIM: the same
SMILES: C=C1C(=O)OC(CCCCCCCC)C1C(=O)O (stereo not shown) [C75, reference compound]
